Experimental data as given in patent US20120142705A1, “ISATIN AND OXINDOLE COMPOUNDS” (priority 2010, published 2012).

biological target: T1, Recombinant human liver GK1 (GST-GK) (Homo sapiens, UniProt P35557); test: In vitro glucokinase activity, G6PDH-coupled spectrophotometric assay; format: biochemical; conditions: 5 mM D-glucose, 30° C., pH 7.1
T1 construct: made in house; host or cells: E. coli
T1 sequence (P35557 1-466 isoform P35557-2): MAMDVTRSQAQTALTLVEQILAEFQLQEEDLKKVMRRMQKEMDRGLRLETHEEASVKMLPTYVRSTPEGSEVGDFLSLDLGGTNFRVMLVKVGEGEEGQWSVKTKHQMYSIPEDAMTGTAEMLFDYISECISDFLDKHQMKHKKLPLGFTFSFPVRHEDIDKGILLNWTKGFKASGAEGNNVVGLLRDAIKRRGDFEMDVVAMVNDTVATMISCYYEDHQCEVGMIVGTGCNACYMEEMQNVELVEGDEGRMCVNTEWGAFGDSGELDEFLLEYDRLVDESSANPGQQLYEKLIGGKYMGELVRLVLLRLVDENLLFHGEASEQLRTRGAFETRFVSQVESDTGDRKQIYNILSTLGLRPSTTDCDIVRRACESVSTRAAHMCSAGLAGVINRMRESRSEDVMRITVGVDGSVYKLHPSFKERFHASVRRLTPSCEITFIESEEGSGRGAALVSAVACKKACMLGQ
Method in brief: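 GST-fused human liver GK1 from E. coli, run at 30° C. in pH 7.1 HEPES with 5 mM glucose, 1 mM ATP and 10% DMSO, coupled via G6PDH to NADH. OD340 rate measured after enzyme start; SC1.5 is the activator concentration raising activity 50% over DMSO control.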

Compound | SC1.5 (concentration of activator that produced a 50% increase in the activity of GK) [µM]
CC(C)(O)Cn1ccc(NC(=O)C(CC2CCCC2)N2C(=O)Cc3ccccc32)n1 (centres unmarked) [Example 59, 3-Cyclopentyl-N-[1-(2-hydroxy-2-methyl-propyl)-1H-pyrazol-3-yl]-2-(2-oxo-2,3-dihydro-indol-1-yl)-propionamide] | 3.87
CC(C)CC(C(=O)Nc1ccn(C)n1)N1C(=O)Cc2cc(Br)ccc21 (centres unmarked) [Example 73, 2-(5-Bromo-2-oxo-2,3-dihydro-indol-1-yl)-4-methyl-pentanoic acid (1-methyl-1H-pyrazol-3-yl)-amide] | 17.96
Cc1ccc2c(c1)N(C(CC1CCCC1)C(=O)Nc1cnccn1)C(=O)C2 (centres unmarked) [Example 130, 3-Cyclopentyl-2-(6-methyl-2-oxo-2,3-dihydro-indol-1-yl)-N-pyrazin-2-yl-propionamide] | 0.61
O=C(Nc1ccccn1)C(CC1CCCC1)N1C(=O)Cc2cc(Br)ccc21 (centres unmarked) [Example 64, 2-(5-Bromo-2-oxo-2,3-dihydro-indol-1-yl)-3-cyclopentyl-N-pyridin-2-yl-propionamide] | 0.48
Cc1ccc2c(c1)N(C(CC1CCCC1)C(=O)Nc1nccs1)C(=O)C2 (centres unmarked) [Example 129, 3-Cyclopentyl-2-(6-methyl-2-oxo-2,3-dihydro-indol-1-yl)-N-thiazol-2-yl-propionamide] | 0.53
COc1ccc2c(c1)C(=O)C(=O)N2C(CC1CCCC1)C(=O)Nc1ccn(C)n1 (centres unmarked) [Example 47, 3-Cyclopentyl-2-(5-methoxy-2,3-dioxo-2,3-dihydro-indol-1-yl)-N-(1-methyl-1H-pyrazol-3-yl)-propionamide] | 23.88
O=C(Nc1ccccn1)C(CC1CCCC1)N1C(=O)Cc2cc(Cl)ccc21 (centres unmarked) [Example 100, 2-(5-Chloro-2-oxo-2,3-dihydro-indol-1-yl)-3-cyclopentyl-N-pyridin-2-yl-propionamide] | 0.49
Cn1ccc(NC(=O)C(CC2CCCC2)N2C(=O)Cc3cc(Br)ccc32)n1 (centres unmarked) [Example 65, 2-(5-Bromo-2-oxo-2,3-dihydro-indol-1-yl)-3-cyclopentyl-N-(1-methyl-1H-pyrazol-3-yl)-propionamide] | 2.71
Cc1ccc2c(c1)C(=O)C(=O)N2C(CC1CCCC1)C(=O)Nc1ccccn1 (centres unmarked) [Example 77, 3-Cyclopentyl-2-(5-methyl-2,3-dioxo-2,3-dihydro-indol-1-yl)-N-pyridin-2-yl-propionamide] | 6.67
CC(C)CC(C(=O)Nc1ccccn1)N1C(=O)Cc2cc(Br)ccc21 (centres unmarked) [Example 74, 2-(5-Bromo-2-oxo-2,3-dihydro-indol-1-yl)-4-methyl-pentanoic acid pyridin-2-ylamide] | 3.24
O=C1C(=O)N(C(CC2CCCC2)C(=O)Nc2cnccn2)c2cccc(Cl)c21 (centres unmarked) [Example 13, 2-(4-Chloro-2,3-dioxo-2,3-dihydro-indol-1-yl)-3-cyclopentyl-N-pyrazin-2-yl-propionamide] | 6.94
O=C(Nc1nccs1)C(CC1CCCC1)N1C(=O)Cc2cc(OC(F)(F)F)ccc21 (centres unmarked) [Example 35, 3-Cyclopentyl-2-(2-oxo-5-trifluoromethoxy-2,3-dihydro-indol-1-yl)-N-thiazol-2-yl-propionamide] | 0.49
Cn1ccc(NC(=O)C(CC2CCCC2)N2C(=O)C(=O)c3cc(Cl)ccc32)n1 (centres unmarked) [Example 95, 2-(5-Chloro-2,3-dioxo-2,3-dihydro-indol-1-yl)-3-cyclopentyl-N-(1-methyl-1H-pyrazol-3-yl)-propionamide] | 7.27
O=C1C(=O)N(C(CC2CCCC2)C(=O)Nc2ccccn2)c2ccc(Cl)cc21 (centres unmarked) [Example 94, 2-(5-Chloro-2,3-dioxo-2,3-dihydro-indol-1-yl)-3-cyclopentyl-N-pyridin-2-yl-propionamide] | 1.04
O=C1C(=O)N(C(CC2CCCC2)C(=O)Nc2ccn(C[C@@H](O)CO)n2)c2ccc(Cl)cc21 (stereo partly drawn) [Example 93, 2-(5-Chloro-2,3-dioxo-2,3-dihydro-indol-1-yl)-3-cyclopentyl-N-[1-((R)-2,3-dihydroxy-propyl)-1H-pyrazol-3-yl]-propionamide] | 3.36
CC(C)CC(C(=O)Nc1nccs1)N1C(=O)C(=O)c2c(Cl)cccc21 (centres unmarked) [Example 20, 2-(4-Chloro-2,3-dioxo-2,3-dihydro-indol-1-yl)-4-methyl-pentanoic acid thiazol-2-ylamide] | 7.72
CC(C)CC(C(=O)Nc1nccs1)N1C(=O)Cc2cc(Br)ccc21 (centres unmarked) [Example 72, 2-(5-Bromo-2-oxo-2,3-dihydro-indol-1-yl)-4-methyl-pentanoic acid thiazol-2-ylamide] | 5.82
CC(C)CC(C(=O)Nc1ccn(C)n1)N1C(=O)Cc2cc(OC(F)(F)F)ccc21 (centres unmarked) [Example 42, 4-Methyl-2-(2-oxo-5-trifluoromethoxy-2,3-dihydro-indol-1-yl)-pentanoic acid (1-methyl-1H-pyrazol-3-yl)-amide] | 8.12
O=C1C(=O)N(C(CC2CCCC2)C(=O)Nc2nccs2)c2ccc(OC(F)(F)F)cc21 (centres unmarked) [Example 32, 3-Cyclopentyl-2-(2,3-dioxo-5-trifluoromethoxy-2,3-dihydro-indol-1-yl)-N-thiazol-2-yl-propionamide] | 0.76
O=C(Nc1nccs1)C(CC1CCCC1)N1C(=O)Cc2cc(Br)ccc21 (centres unmarked) [Example 66, 2-(5-Bromo-2-oxo-2,3-dihydro-indol-1-yl)-3-cyclopentyl-N-thiazol-2-yl-propionamide] | 1.69
Cn1ccc(NC(=O)C(CC2CCCC2)N2C(=O)Cc3cc(OC(F)(F)F)ccc32)n1 (centres unmarked) [Example 34, 3-Cyclopentyl-N-(1-methyl-1H-pyrazol-3-yl)-2-(2-oxo-5-trifluoromethoxy-2,3-dihydro-indol-1-yl)-propionamide] | 1.07
O=C(Nc1nccs1)C(CC1CCCC1)N1C(=O)Cc2ccc(Cl)cc21 (centres unmarked) [Example 123, 2-(6-Chloro-2-oxo-2,3-dihydro-indol-1-yl)-3-cyclopentyl-N-thiazol-2-yl-propionamide] | 0.27
O=C1C(=O)N(C(CC2CCCC2)C(=O)Nc2nccs2)c2ccccc21 (centres unmarked) [Example 4, 3-Cyclopentyl-2-(2,3-dioxo-2,3-dihydro-indol-1-yl)-N-thiazol-2-yl-propionamide] | 5.21
O=C(Nc1cnccn1)C(CC1CCCC1)N1C(=O)Cc2cc(OC(F)(F)F)ccc21 (centres unmarked) [Example 36, 3-Cyclopentyl-2-(2-oxo-5-trifluoromethoxy-2,3-dihydro-indol-1-yl)-N-pyrazin-2-yl-propionamide] | 0.63
CC(C)CC(C(=O)Nc1ccn(C)n1)N1C(=O)C(=O)c2cc(OC(F)(F)F)ccc21 (centres unmarked) [Example 39, 2-(2,3-Dioxo-5-trifluoromethoxy-2,3-dihydro-indol-1-yl)-4-methyl-pentanoic acid (1-methyl-1H-pyrazol-3-yl)-amide] | 21.28

same assay, conditions: @ 30 uM; 5 mM D-glucose, 30° C.

Compound | fold induction at 30 µM
CC(C)CC(C(=O)Nc1ccccn1)N1C(=O)C(=O)c2ccccc21 (centres unmarked) [Example 9, 2-(2,3-Dioxo-2,3-dihydro-indol-1-yl)-4-methyl-pentanoic acid pyridin-2-ylamide] | 1.33
CC(C)CC(C(=O)Nc1nccs1)N1C(=O)C(=O)c2ccccc21 (centres unmarked) [Example 10, 2-(2,3-Dioxo-2,3-dihydro-indol-1-yl)-4-methyl-pentanoic acid thiazol-2-ylamide] | 1.2
Cn1ccc(NC(=O)C(CC2CCCC2)N2C(=O)C(=O)c3ccccc32)n1 (centres unmarked) [Example 5, 3-Cyclopentyl-2-(2,3-dioxo-2,3-dihydro-indol-1-yl)-N-(1-methyl-1H-pyrazol-3-yl)-propionamide] | 1.47
COc1ccc2c(c1)CC(=O)N2C(CC(C)C)C(=O)Nc1cnccn1 (centres unmarked) [Example 58, 2-(5-Methoxy-2-oxo-2,3-dihydro-indol-1-yl)-4-methyl-pentanoic acid pyrazin-2-ylamide] | 1.31
